SMILES strings stand for the structures. Calls of active or inactive are those of the source. The calls are words filed in the database; no cut-off is given here.

The subject of data set [1] is MCF7. The data set can be described thus: Cytotoxicity against human MCF7 cells assessed as reduction in cell viability incubated for 72 hrs by MTT assay. Particulars: MCF7, 72 h. Type of data set: functional, cell-based. For orientation: Tetrazolium dyes change colour on reduction, which living cells bring about.
Data set [2] deals with HeLa. The experiment in a line: Cytotoxicity against human HeLa cells assessed as reduction in cell viability incubated for 72 hrs by MTT assay. The format is functional, cell-based.
In data set [3] the test system is A549. The experiment in a line: Cytotoxicity against human A549 cells assessed as reduction in cell viability incubated for 72 hrs by MTT assay. The format is functional, cell-based. To be noted: A549, 72 h.
A short description of data set [4]: Cytotoxicity against HEK cells assessed as reduction in cell viability upto 200 uM incubated for 72 hrs by MTT assay. Type of data set: toxicity, cell-based. To be noted: human.
Data set [5] relates to A549. The data set can be described thus: Induction of cell cycle arrest in human A549 cells assessed as accumulation of cells at G0/G1 phase after 24 hrs by PI/RNase staining based flow cytometry analysis. The format is functional. (A flow cytometer gives signals particle by particle.)
Data set [6] relates to A549. The experiment in a line: Induction of cell cycle arrest in human A549 cells assessed as accumulation of cells at G2/M phase after 24 hrs by PI/RNase staining based flow cytometry analysis. The format is functional.
Data set [7] deals with A549. The data set can be described thus: Induction of morphological changes in human A549 cells assessed as membrane blebbing by inverted light microscopic analysis. Type of data set: functional, cell-based.
Data set [8] has as its system A549. The experiment in a line: Induction of nuclear fragmentation in human A549 cells incubated for 24 hrs by DAPI staining based fluorescence microscopic analysis. Type of data set: functional, cell-based.
The nature of data set [9]: Induction of morphological changes in HEK cells assessed as cell detachment incubated for 24 hrs by inverted light microscopic analysis. Type of data set: toxicity, cell-based. To be noted: human.
For data set [10], the system named is A549. The experiment in a line: Induction of morphological changes in human A549 cells assessed as formation of floating cells by inverted light microscopic analysis. The format is functional, cell-based.
Data set [11] has as its system A549. The experiment in a line: Induction of cell cycle arrest in human A549 cells assessed as accumulation of cells at S phase after 24 hrs by PI/RNase staining based flow cytometry analysis. Type of data set: functional.
For data set [12], the system named is A549. The experiment in a line: Induction of chromatin condensation in human A549 cells incubated for 24 hrs by DAPI staining based fluorescence microscopic analysis. Type of data set: functional, cell-based.
Data set [13] has as its system A549. The data set can be described thus: Induction of morphological changes in human A549 cells assessed as cell shrinkage by inverted light microscopic analysis. Type of data set: functional, cell-based.
A short description of data set [14]: Induction of morphological changes in HEK cells assessed as cell blebbing incubated for 24 hrs by inverted light microscopic analysis. The format is toxicity, cell-based. Particulars: human.
Data set [15] relates to A549. The experiment in a line: Induction of apoptosis in human A549 cells by AO/EtBr staining based fluorescence microscopic analysis. Type of data set: functional, cell-based.

Consider `O=C(N/N=C1\CCNc2c1cccc2[N+](=O)[O-])c1cccs1`, for which the IC50 – broadly, the concentration needed to halve the response being measured – in [1] is 22.8 µM; in [2] it was 29.6 µM; in [3] it was 26.3 µM. The Activity entry in [4] is “Non-Toxic”.

Regarding `O=C(N/N=C1\CCNc2c1cccc2[N+](=O)[O-])c1ccccc1O`, the figures for the IC50 in [1], in data set [2] and in data set [3] were 20.2 µM, 24.5 µM and 15.8 µM, respectively. Further, in data set [4], the Activity entry is “Non-Toxic”.

As to `O=C(N/N=C1\CCNc2c1cc(Cl)cc2[N+](=O)[O-])c1ccco1`, the IC50 in [1] turned out to be 25.5 µM; in data set [2], 32.5 µM; in [3] it was 24.5 µM. The Activity result in [4] is recorded as “Non-Toxic”.

Consider `O=C(N/N=C1\CCNc2c1cc(Cl)cc2[N+](=O)[O-])c1ccccc1O`, for which the outcome in [5], in data set [6], in data set [8], in data set [11], in [12] and in [15] was Active. Moreover, the Activity entry in data set [7] was “Dose-Dependent Effect”; in [9], “Non-Toxic”; in data set [10], “Dose-Dependent Effect”; in data set [13], “Dose-Dependent Effect”; in data set [14], “Non-Toxic”; in data set [4], “Non-Toxic”. Further, the values for the IC50 in data set [1], in [2] and in [3] were 18.4 µM, 21.3 µM and 15.3 µM, respectively.

As to `O=C(N/N=C1\CCNc2c1cc(Cl)cc2[N+](=O)[O-])c1cccs1`, the outcome in data set [5], in data set [6], in [8], in data set [11], in data set [12] and in data set [15] was Active. The Activity entry in data set [7] was “Dose-Dependent Effect”; in [9], “Non-Toxic”; in data set [10], “Dose-Dependent Effect”; in data set [13] it was “Dose-Dependent Effect”; in data set [14] it was “Non-Toxic”; in data set [4], “Non-Toxic”. Besides, the IC50 in data set [1] is 19.2 µM; in [2], 20.1 µM; in [3] it was 17.1 µM.

`COc1cccc2c1C(=O)c1c(O)c3c(c(O)c1C2=O)C[C@@](O)(C(=O)CO)C[C@@H]3O[C@H]1C[C@H](N)[C@H](O)[C@H](C)O1` [DOXORUBICIN]: the results for the IC50 in data set [1] and in [2] were 11.6 µM and 13.5 µM, respectively. For the same compound, the Activity entry in data set [4] is “Non-Toxic”.

For `O=C(N/N=C1\CCNc2c1cc(Cl)cc2[N+](=O)[O-])c1cccnc1`, the IC50 in data set [1] turned out to be 20.5 µM; in data set [2], 26.8 µM; in [3], 23.1 µM. For the same compound, the Activity result in data set [4] is “Non-Toxic”.

As to `O=C(N/N=C1\CCNc2c1cccc2[N+](=O)[O-])c1ccco1`, the IC50 was 22.5 µM in data set [1], 30.4 µM in data set [2] and 18.3 µM in [3]. In addition, the Activity entry in data set [4] is listed as “Non-Toxic”.

Take `O=C(N/N=C1\CCNc2c1cccc2[N+](=O)[O-])c1cccnc1`: the IC50 came to 23.3 µM in data set [1], 29.2 µM in data set [2] and 21.5 µM in data set [3]. Further, in data set [4], the Activity entry is reported as “Non-Toxic”.

Source of the values: ChEMBL document CHEMBL5329159, “Anti-proliferative activity of nitroquinolone fused acylhydrazones as non-small cell human lung cancer agents” (RSC Med Chem, 2023).
